Measured values taken from patent US8624027B2, “Combination therapy for treating cancer and diagnostic assays for use therein” (AbbVie Inc., priority 2005, dated 2014).
Read-outs that look alike come from different tables or passages of the source.

Columns and labels:
[1] = tested on: NCI-H146 human small cell lung carcinoma cells; experiment: Cellular efficacy in human tumor cell line (MTS viability assay); type: cell-based; details: 10% human serum, 48 hours
Description: NCI-H146 (ATCC, Manassas, Va.) human small cell lung carcinoma cells were plated 50,000 cells per well in 96-well tissue culture plates in a total volume of 100 μL tissue culture medium supplemented with 10% human serum (Invitrogen, Carlsbad, Calif.) instead of fetal bovine serum and treated with a 2-fold serial dilution of the compounds of interest from 10 μM to 0.020 μM. Each concentration was tested in duplicate at least 3 separate times. The number of viable cells following 48 hours of compound treatment was determined using the CellTiter 96® AQueous non-radioactive cell proliferation MTS assay according to manufacturer's recommendations (Promega Corp., Madison, Wis.).

[2] = Pharmacokinetic evaluation in rat; type: in vivo; details: male, Sprague-Dawley, plasma; for AUC / Cmax: 5 mg/kg, oral; for AUC(0-inf): single 5 mg/kg oral dose, Table 1, read-out: Pharmacokinetic area under the plasma concentration Curve (rat) AUC0-∞
Description: The pharmacokinetic behavior of compounds of this disclosure was determined following a single 2 mg/kg intravenous or 5 mg/kg oral dose in male Sprague-Dawley derived rats (n=3 per group). The compounds were prepared as 2 mg/mL solution in a 10% DMSO in PEG-400 formulation for both oral and intravenous administration. The 1 mL/kg intravenous dose was administered as a slow bolus (about 1-2 minutes) in the jugular vein of a rat under light ether anesthetic. The oral dose was administered by gavage. Serial blood samples were obtained from a tail vein of each rat prior 0.1 (IV only), 0.25, 0.5, 1, 1.5, 2, 3, 4, 6, 8 and 24 hours after dosing. The heparinized samples were thoroughly mixed and placed in an ice bath. Plasma was separated by centrifugation and stored frozen prior to analysis.
The compounds of interest were separated from the plasma using protein precipitation with acetonitrile. A plasma (100-200 μL, sample or spiked standard) aliquot was combined with 50 μL of internal standard (structurally related analog prepared in acetonitrile) and 1 ml acetonitrile in a 96-well polypropylene deep well plate. The plates were vortexed for 30 seconds followed by centrifugation (3500 rpm×15 minutes, 4° C.). In an automated manner, the supernatant was transferred to a clean 96-well plate. The samples were evaporated to near dryness on a Micro-Vap™ under a stream of dry nitrogen over low heat (˜37° C.). The samples were reconstituted vortexing with 0.2 mL 5% DMSO in acetonitrile. A 0.1-0.2 ml aliquot of acetonitrile: 0.1% trifluoroacetic acid (20:80, by volume) was added to each well, followed by an additional 30 second vortexing. The plates were centrifuged (3500 rpm×15 minutes, 4° C.) prior to HPLC-MS/MS analysis. Samples were analyzed simultaneously with spiked plasma standards. All samples from each study were analyzed as a single batch on the LC-MS/MS.
The compounds of interest and the internal standard were separated from each other and co-extracted contaminants on a 50×3 mm Keystone Betasil CN 5 μm column with an acetonitrile: 0.1% trifluoroacetic acid mobile phase (50:50, by volume) at a flow rate of 0.7 ml/min. Analysis was performed on a Sciex API 300™ Biomolecular Mass Analyzer using a heated nebulizer interface. Peak areas of the title compounds and internal standards were determined using the Sciex MacQuan™ software. Calibration curves were derived from peak area ratio (parent drug/internal standard) of the spiked rat plasma standards using least squares linear regression of the ratio versus the theoretical concentration. The methods were generally linear over the range of the standard curve (correlation coefficients >0.99) with an estimated quantitation limit of 0.01 μg/mL. The plasma concentration data for each animal were submitted to multi-exponential curve fitting using WinNonlin. The area under the plasma concentration-time curve from 0 to t hours (time of the last measurable plasma concentration) after dosing (AUC0-t) was calculated using the linear trapezoidal rule for the plasma concentration-time profiles. The residual area extrapolated to infinity, determined as the final measured plasma concentration (Ct) divided by the terminal elimination rate constant (β), was added to AUC0-t to produce the total area under the curve (AUC0-∞). Ki values shown in the tables below were determined using Wang's equation (Wang Z X., An Exact Mathematical Expression For Describing Competitive Binding Of Two Different Ligands To A Protein Molecule. FEBS Lett. 1995; 360:111-4)).

Bcl-XL protein = Bcl-XL protein (Homo sapiens, UniProt Q07817); experiment: Bcl-XL binding affinity, fluorescence polarization with fluorescein-labeled BAD peptide; details: Wang's equation, read-out: Target Binding Affinity Ki (Bcl-XL)
Bcl-XL protein, sequence (Q07817 with tags, fused parts or gaps DEL45-84): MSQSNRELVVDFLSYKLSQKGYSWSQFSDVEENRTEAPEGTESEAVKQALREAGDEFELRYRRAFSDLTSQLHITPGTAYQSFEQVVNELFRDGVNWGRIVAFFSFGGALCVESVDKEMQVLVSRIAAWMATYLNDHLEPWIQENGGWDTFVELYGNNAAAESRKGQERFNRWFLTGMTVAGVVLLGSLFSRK

Bcl-2 protein = molecular target: T1, Bcl-2 protein (Homo sapiens, UniProt P10415, DELINS35-91DVEENRTEAPEGTESE, form not given); experiment: Bcl-2 binding affinity, fluorescence polarization with fluorescein-labeled BAX peptide; details: Wang's equation, read-out: Target Binding Affinity Ki (Bcl-2)
T1 construct: fused on or other part: A short piece of the Bcl-xL (Q07817) loop replaces Bcl-2 loop residues 35-91; The C-terminal membrane anchor is absent
T1 sequence (P10415 with tags, fused parts or gaps with the stated changes): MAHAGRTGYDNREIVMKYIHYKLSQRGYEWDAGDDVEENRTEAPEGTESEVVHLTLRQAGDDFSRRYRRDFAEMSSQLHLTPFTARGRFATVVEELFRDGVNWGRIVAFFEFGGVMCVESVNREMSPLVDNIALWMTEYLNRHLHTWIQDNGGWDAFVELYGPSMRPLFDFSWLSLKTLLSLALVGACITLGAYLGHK

[3] = Table 2, read-out: Pharmacokinetic area under the plasma concentration curve (rat) AUC
[4] = Table 2, read-out: Pharmacokinetic peak plasma concentration (rat) Cmax
[5] = NCI-H146, Table 2, read-out: NCI-H146 Cellular Efficacy H146, EC50
[6] = NCI-H146, Table 1, read-out: NCI-H146 Cellular Efficacy EC50
[7] = Table 3, read-out: Pharmacokinetic area under the plasma concentration Curve (rat) AUC
[8] = Table 3, read-out: Pharmacokinetic peak plasma concentration (rat) Cmax
[9] = NCI-H146, Table 3, read-out: NCI-H146 Cellular Efficacy H146 EC50

Molecule | AUC [2, 3] [µM·h] | Cmax [2, 4] [nM] | EC50 [1, 5] [nM] | Ki (Bcl-XL protein) [nM] | Ki (Bcl-2 protein) [nM] | AUC [2, 7] [µM·h] | Cmax [2, 8] [nM] | EC50 [1, 9] [nM] | further results
3-((chloro(difluoro)methyl)sulfonyl)-N-(4-(4-((2-(4-chlorophenyl)-4,4-dimethylcyclohex-1-en-1-yl)methyl)piperazin-1-yl)benzoyl)-4-(((1R)-3-(dimethylamino)-1-((phenylsulfanyl)methyl)propyl)amino)benzenesulfonamide [Example 28] |  |  |  |  |  |  |  |  | EC50 ([1]; Table 1, read-out: NCI-H146 Cellular Efficacy EC50): 24.2 nM
CN(C)CC[C@H](CSc1ccccc1)Nc1ccc(S(=O)(=O)NC(=O)c2ccc(N3CCN(Cc4ccccc4-c4ccc(Cl)cc4)CC3)cc2)cc1C(F)(F)F [A, reference compound] | 4.41 | 371 | 1600 |  |  |  |  |  | 
CN(C)CC[C@H](CSc1ccccc1)Nc1ccc(S(=O)(=O)NC(=O)c2ccc(N3CCN(Cc4ccccc4-c4ccc(Cl)cc4)CC3)cc2)cc1[N+](=O)[O-] [B, reference compound] | 0.283 | 39 | 63 |  |  |  |  |  | 
CN(C)CC[C@H](CSc1ccccc1)Nc1ccc(S(=O)(=O)NC(=O)c2ccc(N3CCN(Cc4ccccc4-c4ccc(Cl)cc4)CC3)cc2)cc1C#N [C, reference compound] | 1.92 | 315 | 1810 |  |  |  |  |  | 
CN(C)CC[C@H](CSc1ccccc1)Nc1ccc(S(=O)(=O)NC(=O)c2ccc(N3CCN(Cc4ccccc4-c4ccc(Cl)cc4)CC3)cc2)c(F)c1C(F)(F)F [D, reference compound] | 3.83 | 386 | 7330 |  |  |  |  |  | 
CN(C)CC[C@H](CSc1ccccc1)Nc1ccc(S(=O)(=O)NC(=O)c2ccc(N3CCN(CC4=C(c5ccc(Cl)cc5)CCCC4)CC3)cc2)cc1[N+](=O)[O-] [G, reference compound] |  |  |  |  |  | 0.507 | 57 | 26 | 

Further lines, with some results ahead:

AUC [2, 3] [µM·h] | Cmax [2, 4] [nM] | EC50 [1, 5] [nM] | Ki (Bcl-XL protein) [nM] | Ki (Bcl-2 protein) [nM] | AUC [2, 7] [µM·h] | Cmax [2, 8] [nM] | EC50 [1, 9] [nM] | Molecule | further results
 |  |  | ≤ 1 | ≤ 1 |  |  |  | CC1(C)CCC(CN2CCN(c3ccc(C(=O)NS(=O)(=O)c4ccc(N[C@H](CCN5CCOCC5)CSc5ccccc5)c(S(=O)(=O)C(F)(F)Cl)c4)cc3)CC2)=C(c2ccc(Cl)cc2)C1 [Example 2, 3-((chloro(difluoro)methyl)sulfonyl)-N-(4-(4-((2-(4-chlorophenyl)-4,4-dimethylcyclohex-1-en-1-yl)methyl)piperazin-1-yl)benzoyl)-4-(((1R)-3-(morpholin-4-yl)-1-((phenylsulfanyl)methyl)propyl)amino)benzenesulfonamide] | AUC(0-inf) [2]: 7.01 µM·h; EC50 [1, 6]: 29.1 nM
 |  |  | ≤ 1 | ≤ 1 | 4.13 | 385 | 29 | O=C(NS(=O)(=O)c1ccc(N[C@H](CCN2CCOCC2)CSc2ccccc2)c(S(=O)(=O)C(F)(F)Cl)c1)c1ccc(N2CCN(CC3=C(c4ccc(Cl)cc4)CCCC3)CC2)cc1 [Example 3, 3-((chloro(difluoro)methyl)sulfonyl)-N-(4-(4-((2-(4-chlorophenyl)-1-cyclohex-1-en-1-yl)methyl)piperazin-1-yl)benzoyl)-4-(((1R)-3-(morpholin-4-yl)-1-((phenylsulfanyl)methyl)propyl)amino)benzenesulfonamide] | AUC(0-inf) [2]: 4.13 µM·h; EC50 [1, 6]: 28.8 nM
 |  |  | ≤ 1 | ≤ 1 |  |  |  | CN(C)CC[C@H](CSc1ccccc1)Nc1ccc(S(=O)(=O)NC(=O)c2ccc(N3CCN(CC4=C(c5ccc(Cl)cc5)CC(C)(C)CC4)CC3)cc2)cc1S(=O)(=O)C(F)(F)Cl [Example 28, 3-((chloro(difluoro)methyl)sulfonyl)-N-(4-(4-((2-(4-chlorophenyl)-4,4-dimethylcyclohex-1-en-1-yl)methyl)piperazin-1-yl)benzoyl)-4-(((1R)-3-(dimethylamino)-1-((phenylsulfanyl)methyl)propyl)amino)benzenesulfonamide] | 
 |  |  |  |  | 1.97 | 215 | 410 | CN(C)CC[C@H](CSc1ccccc1)Nc1ccc(S(=O)(=O)NC(=O)c2ccc(N3CCN(CC4=C(c5ccc(Cl)cc5)CCCC4)CC3)cc2)cc1C(F)(F)F [H, reference compound] | 
